# Patent publication US10670605B2, “Cysteine reactive probes and uses thereof” (The Scripps Research Institute, priority 2015, dated 2020)
# Legend:
# Assay in all cases: Competitive isoTOP-ABPP in situ (fragment-treated cells)
# Assay type in all cases: cell-based
# [1] = biological target: cysteines in MDA-MB-231 and Ramos cells (Homo sapiens, UniProt Q9NUY8)
# [2] = biological target: T1, cysteines in MDA-MB-231 and Ramos cells (Homo sapiens, UniProt P13667)
# T1 sequence (P13667 21-645): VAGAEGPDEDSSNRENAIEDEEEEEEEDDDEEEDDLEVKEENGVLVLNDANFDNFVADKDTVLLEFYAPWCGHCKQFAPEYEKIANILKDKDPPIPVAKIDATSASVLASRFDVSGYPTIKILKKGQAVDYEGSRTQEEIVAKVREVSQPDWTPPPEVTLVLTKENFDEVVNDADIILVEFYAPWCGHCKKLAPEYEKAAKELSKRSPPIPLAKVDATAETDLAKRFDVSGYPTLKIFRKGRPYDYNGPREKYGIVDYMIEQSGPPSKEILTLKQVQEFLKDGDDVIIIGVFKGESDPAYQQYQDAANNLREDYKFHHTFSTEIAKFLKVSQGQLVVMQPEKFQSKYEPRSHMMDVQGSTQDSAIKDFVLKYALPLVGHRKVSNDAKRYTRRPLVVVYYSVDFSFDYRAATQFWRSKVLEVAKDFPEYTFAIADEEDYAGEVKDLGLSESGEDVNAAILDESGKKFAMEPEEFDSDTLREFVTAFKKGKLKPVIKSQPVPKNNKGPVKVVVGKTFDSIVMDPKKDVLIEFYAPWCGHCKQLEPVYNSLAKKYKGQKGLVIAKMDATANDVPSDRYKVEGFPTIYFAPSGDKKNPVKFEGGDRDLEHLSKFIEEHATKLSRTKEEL
# [3] = biological target: T2, cysteines in MDA-MB-231 and Ramos cells (Homo sapiens, UniProt Q13155)
# T2 sequence (Q13155 1-320): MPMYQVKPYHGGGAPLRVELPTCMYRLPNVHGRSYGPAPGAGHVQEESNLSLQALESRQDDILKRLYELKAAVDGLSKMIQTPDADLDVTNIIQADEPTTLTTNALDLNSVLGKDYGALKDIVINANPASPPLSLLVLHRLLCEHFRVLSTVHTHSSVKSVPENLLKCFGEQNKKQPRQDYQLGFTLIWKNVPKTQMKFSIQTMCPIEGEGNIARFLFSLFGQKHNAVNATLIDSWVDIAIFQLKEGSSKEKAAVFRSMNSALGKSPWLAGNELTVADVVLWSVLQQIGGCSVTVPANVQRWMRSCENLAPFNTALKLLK
# [4] = biological target: cysteines in MDA-MB-231 and Ramos cells (Homo sapiens, UniProt P61978)
# [5] = biological target: T3, cysteines in MDA-MB-231 and Ramos cells (Homo sapiens, UniProt P49588)
# T3 sequence (P49588 1-968): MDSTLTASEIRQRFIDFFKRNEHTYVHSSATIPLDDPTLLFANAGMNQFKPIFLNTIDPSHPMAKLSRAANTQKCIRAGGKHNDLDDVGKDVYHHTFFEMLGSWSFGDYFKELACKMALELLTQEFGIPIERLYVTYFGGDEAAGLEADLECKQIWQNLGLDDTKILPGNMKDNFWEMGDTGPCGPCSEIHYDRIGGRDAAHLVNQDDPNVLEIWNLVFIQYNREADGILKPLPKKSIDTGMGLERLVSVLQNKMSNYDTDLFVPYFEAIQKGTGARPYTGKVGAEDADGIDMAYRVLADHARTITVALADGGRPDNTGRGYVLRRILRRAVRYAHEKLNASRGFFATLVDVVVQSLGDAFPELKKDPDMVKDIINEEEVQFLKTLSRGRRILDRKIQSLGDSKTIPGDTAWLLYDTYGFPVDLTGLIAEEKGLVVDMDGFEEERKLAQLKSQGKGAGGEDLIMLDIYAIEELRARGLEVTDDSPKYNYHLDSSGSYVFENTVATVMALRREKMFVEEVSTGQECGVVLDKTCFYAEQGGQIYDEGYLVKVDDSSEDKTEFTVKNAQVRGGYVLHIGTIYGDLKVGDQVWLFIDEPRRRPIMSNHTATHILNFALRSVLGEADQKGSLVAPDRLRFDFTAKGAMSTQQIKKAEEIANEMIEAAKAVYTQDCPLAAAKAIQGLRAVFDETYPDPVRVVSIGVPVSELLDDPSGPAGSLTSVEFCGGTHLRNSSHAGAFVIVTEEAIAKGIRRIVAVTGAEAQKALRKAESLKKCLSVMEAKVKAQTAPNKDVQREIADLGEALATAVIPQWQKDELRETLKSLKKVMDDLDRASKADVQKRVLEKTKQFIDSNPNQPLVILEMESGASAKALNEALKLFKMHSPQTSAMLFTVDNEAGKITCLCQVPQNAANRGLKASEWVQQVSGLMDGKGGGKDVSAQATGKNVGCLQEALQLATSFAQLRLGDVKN
# [6] = biological target: T4, cysteines in MDA-MB-231 and Ramos cells (Homo sapiens, UniProt Q13162)
# T4 sequence (Q13162 38-271): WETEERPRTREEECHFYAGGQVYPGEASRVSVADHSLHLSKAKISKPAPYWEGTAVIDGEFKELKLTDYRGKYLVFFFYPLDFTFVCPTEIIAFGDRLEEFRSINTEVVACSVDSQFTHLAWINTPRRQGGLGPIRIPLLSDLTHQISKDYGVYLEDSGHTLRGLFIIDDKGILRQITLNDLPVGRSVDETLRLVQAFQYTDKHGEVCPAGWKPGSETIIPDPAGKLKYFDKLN
# Sequence of cysteines in MDA-MB-231 and Ramos cells (Homo sapiens, UniProt Q9NUY8) (Q9NUY8 whole entry): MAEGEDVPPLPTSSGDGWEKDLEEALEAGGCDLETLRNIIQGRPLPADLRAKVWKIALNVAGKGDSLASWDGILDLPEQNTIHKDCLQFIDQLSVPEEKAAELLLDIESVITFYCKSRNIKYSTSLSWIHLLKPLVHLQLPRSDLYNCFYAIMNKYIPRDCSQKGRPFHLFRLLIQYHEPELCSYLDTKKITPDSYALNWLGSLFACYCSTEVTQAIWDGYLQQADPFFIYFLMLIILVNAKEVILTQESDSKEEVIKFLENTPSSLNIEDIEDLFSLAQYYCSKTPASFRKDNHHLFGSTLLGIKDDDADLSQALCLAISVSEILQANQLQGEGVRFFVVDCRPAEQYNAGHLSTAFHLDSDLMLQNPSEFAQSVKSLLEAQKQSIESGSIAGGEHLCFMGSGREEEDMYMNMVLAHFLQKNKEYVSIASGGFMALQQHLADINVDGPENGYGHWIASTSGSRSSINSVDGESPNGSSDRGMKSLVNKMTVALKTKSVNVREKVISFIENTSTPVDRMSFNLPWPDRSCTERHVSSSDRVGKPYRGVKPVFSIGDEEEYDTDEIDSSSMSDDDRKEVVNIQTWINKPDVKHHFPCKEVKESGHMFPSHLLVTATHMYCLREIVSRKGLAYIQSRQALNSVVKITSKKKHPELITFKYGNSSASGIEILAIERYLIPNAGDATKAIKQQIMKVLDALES
smiles,measurement,setting,value
COc1ccccc1OCCNC(=O)CCl [compound 28],isoTOP-ABPP ratio Q9NUY8_C283,"[1]; 200 μM, insitu, 231",0.7
same,isoTOP-ABPP ratio P13667_C206,"[2]; 200 μM, insitu, 231",1.3
same,isoTOP-ABPP ratio Q13155_C291,"[3]; 200 μM, insitu, 231",0.9
same,isoTOP-ABPP ratio P61978_C132,"[4]; 200 μM, insitu, 231",1.0
Cc1ccc(C=C(C#N)C(=O)NCCN2CCOCC2)cc1 [compound 41],isoTOP-ABPP ratio Q9NUY8_C283,"[1]; 200 μM, insitu, 231",0.7
same,isoTOP-ABPP ratio P13667_C206,"[2]; 200 μM, insitu, 231",1.0
same,isoTOP-ABPP ratio P13667_C555,"[2]; 200 μM, insitu, 231",1.0
same,isoTOP-ABPP ratio P49588_C773,"[5]; 200 μM, insitu, 231",0.7
same,isoTOP-ABPP ratio Q13155_C291,"[3]; 200 μM, insitu, 231",0.7
same,isoTOP-ABPP ratio P61978_C132,"[4]; 200 μM, insitu, 231",0.9
O=C(CCl)NC(=O)NC12CC3CC(CC(C3)C1)C2 [compound 12],isoTOP-ABPP ratio Q9NUY8_C283,"[1]; 200 μM, insitu, 231",2.9
same,isoTOP-ABPP ratio P13667_C206,"[2]; 200 μM, insitu, 231",16.6
same,isoTOP-ABPP ratio P13667_C555,"[2]; 200 μM, insitu, 231",20.0
same,isoTOP-ABPP ratio P49588_C773,"[5]; 200 μM, insitu, 231",0.9
same,isoTOP-ABPP ratio Q13162_C51,"[6]; 200 μM, insitu, 231",1.0
same,isoTOP-ABPP ratio Q13155_C23,"[3]; 200 μM, insitu, 231",1.6
same,isoTOP-ABPP ratio Q13155_C291,"[3]; 200 μM, insitu, 231",1.1
same,isoTOP-ABPP ratio P61978_C132,"[4]; 200 μM, insitu, 231",7.5
O=C(CCl)NCCc1c[nH]c2ccccc12 [compound 13],isoTOP-ABPP ratio Q9NUY8_C283,"[1]; 200 μM, insitu, 231",1.1
same,isoTOP-ABPP ratio Q9NUY8_C283,"[1]; 200 μM, insitu, ramos",1.1
same,isoTOP-ABPP ratio P13667_C206,"[2]; 200 μM, insitu, 231",1.1
same,isoTOP-ABPP ratio P13667_C555,"[2]; 200 μM, insitu, ramos",2.0
same,isoTOP-ABPP ratio P49588_C773,"[5]; 200 μM, insitu, 231",0.8
same,isoTOP-ABPP ratio P49588_C773,"[5]; 200 μM, insitu, ramos",1.1
same,isoTOP-ABPP ratio Q13155_C23,"[3]; 200 μM, insitu, 231",0.9
same,isoTOP-ABPP ratio P61978_C132,"[4]; 200 μM, insitu, 231",1.1
same,isoTOP-ABPP ratio P61978_C132,"[4]; 200 μM, insitu, ramos",1.1
O=C(CCl)N1CCC(Cc2ccccc2)CC1 [compound 9],isoTOP-ABPP reactivity Q9NUY8_C283 TBC1D23,"[1]; 200 μM, insitu, 231",2.1
same,isoTOP-ABPP reactivity P13667_C206 PDIA4,"[2]; 200 μM, insitu, 231",1.1
same,isoTOP-ABPP reactivity P13667_C555 PDIA4,"[2]; 200 μM, insitu, 231",1.4
same,isoTOP-ABPP reactivity P49588_C773 AARS,"[5]; 200 μM, insitu, 231",1.5
same,isoTOP-ABPP reactivity Q13162_C51 PRDX4,"[6]; 200 μM, insitu, 231",3.3
same,isoTOP-ABPP reactivity Q13155_C291 AIMP2,"[3]; 200 μM, insitu, 231",1.9
same,isoTOP-ABPP reactivity P61978_C132 HNRNPK,"[4]; 200 μM, insitu, 231",1.4
COc1ccc(C2CC(c3cccs3)=NN2C(=O)CCl)cc1 (stereo not shown) [compound 4],isoTOP-ABPP reactivity Q9NUY8_C283 TBC1D23,[1]; 100 μM in situ 231,2.1
same,isoTOP-ABPP reactivity P13667_C206 PDIA4,[2]; 100 μM in situ 231,6.8
same,isoTOP-ABPP reactivity P13667_C555 PDIA4,[2]; 100 μM in situ 231,9.0
same,isoTOP-ABPP reactivity P49588_C773 AARS,[5]; 100 μM in situ 231,1.3
same,isoTOP-ABPP reactivity Q13162_C51 PRDX4,[6]; 100 μM in situ 231,1.2
same,isoTOP-ABPP reactivity Q13155_C23 AIMP2,[3]; 100 μM in situ 231,2.8
same,isoTOP-ABPP reactivity Q13155_C291 AIMP2,[3]; 100 μM in situ 231,20.0
same,isoTOP-ABPP reactivity P61978_C132 HNRNPK,[4]; 100 μM in situ 231,3.8
O=C(CCl)NC12CC3CC(CC(C3)C1)C2 [compound 21],isoTOP-ABPP ratio Q9NUY8_C283,"[1]; 200 μM, insitu, 231",0.8
same,isoTOP-ABPP ratio P13667_C206,"[2]; 200 μM, insitu, 231",0.8
same,isoTOP-ABPP ratio P49588_C773,"[5]; 200 μM, insitu, 231",1.1
same,isoTOP-ABPP ratio Q13162_C51,"[6]; 200 μM, insitu, 231",1.7
same,isoTOP-ABPP ratio Q13155_C23,"[3]; 200 μM, insitu, 231",0.9
same,isoTOP-ABPP ratio Q13155_C291,"[3]; 200 μM, insitu, 231",0.8
same,isoTOP-ABPP ratio P61978_C132,"[4]; 200 μM, insitu, 231",1.4
O=C(CCl)Nc1cccc2ncccc12 [compound 51],isoTOP-ABPP ratio Q9NUY8_C283,"[1]; 200 μM, insitu, 231",2.1
same,isoTOP-ABPP ratio P13667_C206,"[2]; 200 μM, insitu, 231",5.3
same,isoTOP-ABPP ratio P13667_C555,"[2]; 200 μM, insitu, 231",6.0
same,isoTOP-ABPP ratio Q13155_C23,"[3]; 200 μM, insitu, 231",1.2
same,isoTOP-ABPP ratio Q13155_C291,"[3]; 200 μM, insitu, 231",1.1
same,isoTOP-ABPP ratio P61978_C132,"[4]; 200 μM, insitu, 231",1.2
